Results reported in ChEMBL document CHEMBL5550217, “Discovery of gem-Dimethyl-hydroxymethylpyridine Derivatives as Potent Non-nucleoside RSV Polymerase Inhibitors” (J Med Chem, 2024).
pEC50, pIC50: −log10 of the molar value.

Legend:
[1] = Clearance in Sprague-Dawley rat at 1.25 mg/kg, iv; type: ADME, organism-based; settings: in vivo
[2] = tested on: Respiratory syncytial virus; experiment: Antiviral activity against Respiratory syncytial virus (RSV)-A2-eGFP infected in human HeLa cells assessed as eGFP expression measured after 3 days by RSV Cell-based infection assay; type: functional, organism-based; settings: 72 h
[3] = Inhibition of RSV RNA polymerase assessed as RNA products using […] template by SPA primer extension enzymatic assay; design: species or system Respiratory syncytial virus
[4] = Cytotoxicity against human HeLa cells measured after 3 days by ATPlite kit assay; type: toxicity, cell-based; settings: time 3 day
[5] = Metabolic stability in rat hepatocytes assessed as intrinsic clearance per 10^6 cells at 1 uM measured upto 180 mins by LC-MS/MS analysis; type: ADME, cell-based, Hepatocyte; settings: read-out: CLH
[6] = Metabolic stability in human hepatocytes assessed as intrinsic clearance per 10^6 cells at 1 uM measured upto 180 mins by LC-MS/MS analysis; type: ADME, cell-based, Hepatocyte; settings: read-out: CLH
[7] = tested on: Respiratory syncytial virus; experiment: Antiviral activity against Respiratory syncytial virus (RSV) infected in human APC-126 cells assessed as replicon by measuring protein adjusted effective concentration in the presence of 40% human serum measured after 3 days by Renilla Glo assay; type: functional, organism-based; settings: 72 h
[8] = Inhibition of RSV RNA polymerase assessed as RNA products using […] template by Flashplate primer extension enzymatic assay; design: species or system Respiratory syncytial virus
[9] = Metabolic stability in human hepatocytes assessed as intrinsic clearance measured per 10^6 cells; type: ADME, cell-based, Hepatocyte; settings: read-out: CLH
[10] = tested on: Respiratory syncytial virus; experiment: Antiviral activity against Respiratory syncytial virus (RSV) assessed as reduction in replicon RNA by Renilla Luciferase assay system; type: functional, organism-based; settings: human respiratory syncytial virus
[11] = Metabolic stability in rat hepatocytes assessed as intrinsic clearance measured per 10^6 cells; type: ADME, cell-based, Hepatocyte; settings: read-out: CLH
[12] = Metabolic stability in human liver microsomes assessed as intrinsic clearance; type: ADME, Microsome; settings: read-out: CLH
[13] = Drug recovery in bile duct cannulated rat urine measured for 48 hrs; type: ADME, tissue-based; settings: read-out: Drug recovery
[14] = Drug recovery in bile duct cannulated rat bile measured for 48 hrs; type: ADME, tissue-based; settings: read-out: Drug recovery

clearance [1] | pEC50 [2] | pIC50 [3] | hepatocyte CLint at 1 µM [5] | hepatocyte CLint at 1 µM [6] | pEC50 [7] | pIC50 [8] | hepatocyte CLint [9] | pEC50 [10] | hepatocyte CLint [11] | microsomal CLint [12] | dose excreted at 48 h [13] | dose excreted at 48 h [14] | SMILES | CC50 at 72 h [4]
6.13 mL/min/kg | 7.72 | 8.43 | 11 µL/min/1e6 cells | < 1.9 µL/min/1e6 cells | – | – | – | – | – | – | – | – | CC(=O)N[C@@]1(C)COc2c1cc([C@@](O)(CNC(=O)c1cc(OC3CC3)c3ncccc3c1)C(F)(F)F)nc2-c1ccc(F)cc1 | 46800 nM
60.9 mL/min/kg | 8.28 | 9.15 | 73 µL/min/1e6 cells | 3 µL/min/1e6 cells | – | – | – | – | – | – | – | – | COc1cc(C(=O)NC[C@](O)(c2cc3c(c(-c4ccc(F)cc4)n2)OC[C@]3(C)NS(C)(=O)=O)C(F)(F)F)cc2cccnc12 | 10200 nM
– | 8.35 | 9.38 | 28 µL/min/1e6 cells | 6.6 µL/min/1e6 cells | 7.37 | – | – | – | – | – | – | – | COc1cc(C(=O)NC[C@](O)(c2cc(C(C)(C)O)c(F)c(-c3ccc(F)cc3)n2)C(F)(F)F)cc2cc(C)cnc12 | 14600 nM
34 mL/min/kg | 7.92 | 8.32 | 28 µL/min/1e6 cells | 11 µL/min/1e6 cells | – | – | – | – | – | – | – | – | COc1cc(C(=O)NC[C@](O)(c2cc3c(c(-c4ccc(F)cc4)n2)OC[C@]3(C)NS(C)(=O)=O)C(F)(F)F)ccc1OC[C@@H](C)O | 54300 nM
– | 7.85 | 7.64 | 13 µL/min/1e6 cells | – | – | – | – | – | – | – | – | – | COc1cc(C(=O)NC[C@](O)(c2cc3c(c(-c4ccc(F)cc4)n2)OC[C@]3(C)NC(C)=O)C(F)(F)F)ccc1OC[C@@H](C)O | 73200 nM
– | 8.89 | 9.44 | – | 3.7 µL/min/1e6 cells | – | – | – | – | – | – | – | – | COc1cc(C(=O)NC[C@](O)(c2cc3c(c(-c4ccc(F)cc4)n2)OC[C@]3(C)NS(C)(=O)=O)C(F)(F)F)cc2cc(C)cnc12 | 11400 nM
– | 8.29 | 9.04 | – | – | 5.91 | – | – | – | – | – | – | – | COc1cc(C(=O)NC[C@](O)(c2cc(C(C)(C)O)c(F)c(-c3ccc(F)cc3)n2)C(F)(F)F)cc2cc(OC(F)F)nnc12 | 8900 nM
– | 8.32 | 8.54 | – | – | – | – | – | – | – | – | – | – | COc1cc(C(=O)NC[C@](O)(c2nc(-c3ccc(F)cc3)c(Cl)c(C(C)(C)O)c2F)C(F)(F)F)cc2cc(C)cnc12 | 45800 nM
– | 7.90 | – | – | – | – | 8.42 | – | – | – | – | – | – | COc1cc(C(=O)NC[C@](O)(c2cc(C(C)(C)O)c(F)c(-c3ccc(F)cc3)n2)C(F)(F)F)cc2cc(CF)cnc12 | 39800 nM
– | 7.59 | – | < 1.9 µL/min/1e6 cells | < 1.9 µL/min/1e6 cells | 6.10 | 9.14 | – | – | – | – | – | – | COc1cc(C(=O)NC[C@](O)(c2cc(C(C)(C)O)c(F)c(-c3ccc(F)cc3)n2)C(F)(F)F)cc2cc(C(F)(F)F)cnc12 | 12600 nM
– | 8.77 | 8.85 | – | 4.3 µL/min/1e6 cells | – | – | – | – | – | – | – | – | COc1cc(C(=O)NC[C@](O)(c2cc(C(C)(C)O)c(Cl)c(-c3ccc(F)cc3)n2)C(F)(F)F)cc2cc(C)cnc12 | 21700 nM
19 mL/min/kg | 7.82 | 8.37 | 11 µL/min/1e6 cells | 8.8 µL/min/1e6 cells | – | – | – | – | – | – | – | – | COc1cc(C(=O)NC[C@](O)(c2cc3c(c(-c4ccc(F)cc4)n2)OC[C@]3(C)NC(C)=O)C(F)(F)F)cc2cccnc12 | 12700 nM
– | 8.17 | 8.88 | 93 µL/min/1e6 cells | < 1.9 µL/min/1e6 cells | 6.48 | – | – | – | – | – | – | – | COc1cc(C(=O)NC[C@](O)(c2cc(C(C)(C)O)c(F)c(-c3ccc(F)cc3)n2)C(F)(F)F)cc2cc(F)nnc12 | 17300 nM
– | 8.59 | 8.93 | – | < 1.2 µL/min/1e6 cells | 6.65 | – | – | – | – | – | – | – | COc1cc(C(=O)NC[C@](O)(c2cc(C(C)(C)O)c(F)c(-c3ccc(F)cc3)n2)C(F)(F)F)cc2cc(C3CC3)nnc12 | 8800 nM
2.51 mL/min/kg | 7.66 | 8.44 | – | < 1.9 µL/min/1e6 cells | – | – | – | – | – | – | – | – | CC(=O)N[C@@]1(C)COc2c1cc([C@@](O)(CNC(=O)c1cc(OC3CC3)c3ncc(F)cc3c1)C(F)(F)F)nc2-c1ccc(F)cc1 | 14000 nM
– | 8.42 | 8.96 | 57 µL/min/1e6 cells | 4.3 µL/min/1e6 cells | 7.32 | – | – | – | – | – | – | – | COc1cc(C(=O)NC[C@](O)(c2cc(C(C)(C)O)c(F)c(-c3ccc(F)cc3)n2)C(F)(F)F)cc2cc(C)c(F)nc12 | 13100 nM
89 mL/min/kg | 8.00 | 8.29 | 54 µL/min/1e6 cells | 31 µL/min/1e6 cells | – | – | 31 µL/min/1e6 cells | 8.00 | 54 µL/min/1e6 cells | – | – | – | COc1cc(C(=O)NC[C@](O)(c2cc3c(c(-c4ccc(F)cc4)n2)OC[C@]3(C)N)C(F)(F)F)ccc1OC[C@@H](C)O | 58400 nM
– | 8.07 | 9.02 | – | – | 7.21 | – | – | – | – | > 347 µL/min/mg | – | – | COc1cc(C(=O)NC[C@](O)(c2cc(C(C)(C)O)c(F)c(-c3ccc(F)cc3)n2)C(F)(F)F)cc2cc(C)c(C)nc12 | 18400 nM
67.3 mL/min/kg | 8.85 | 9.28 | 72 µL/min/1e6 cells | 12 µL/min/1e6 cells | – | – | – | – | – | – | – | – | COc1cc(C(=O)NC[C@](O)(c2cc3c(c(-c4ccc(F)cc4)n2)OC[C@]3(C)NS(C)(=O)=O)C(F)(F)F)cc2nc(N)sc12 | 13600 nM
– | 8.46 | 9.40 | 6.9 µL/min/1e6 cells | < 1.9 µL/min/1e6 cells | 6.72 | – | – | – | – | – | – | – | COc1cc(C(=O)NC[C@](O)(c2cc(C(C)(C)O)c(F)c(-c3ccc(F)cc3)n2)C(F)(F)F)cc2cc(C(F)F)nnc12 | 18300 nM
– | 7.96 | 9.20 | 120 µL/min/1e6 cells | 4.1 µL/min/1e6 cells | 6.51 | – | – | – | – | – | – | – | COc1cc(C(=O)NC[C@](O)(c2cc(C(C)(C)O)c(F)c(-c3ccc(F)cc3)n2)C(F)(F)F)cc2cccnc12 | 16000 nM
13.6 mL/min/kg | 8.57 | 9.08 | 54 µL/min/1e6 cells | 4.9 µL/min/1e6 cells | – | – | – | – | – | – | – | – | COc1cc(C(=O)NC[C@](O)(c2cc3c(c(-c4ccc(F)cc4)n2)OC[C@]3(C)NC(C)=O)C(F)(F)F)cc2cc(C)cnc12 | 14500 nM
– | 8.49 | 9.43 | – | 14 µL/min/1e6 cells | 7.39 | – | – | – | – | – | – | – | CCc1cc2cc(C(=O)NC[C@](O)(c3cc(C(C)(C)O)c(F)c(-c4ccc(F)cc4)n3)C(F)(F)F)cc(OC)c2nn1 | 21800 nM
– | 8.59 | 9.60 | – | 9.7 µL/min/1e6 cells | – | – | – | – | – | – | – | – | COc1cc(C(=O)NC[C@](O)(c2nc(-c3ccc(F)cc3)c(F)c(C(C)(C)O)c2F)C(F)(F)F)cc2cc(C)cnc12 | 43000 nM
– | 8.44 | – | 19 µL/min/1e6 cells | < 1.9 µL/min/1e6 cells | 7.01 | 8.77 | – | – | – | – | – | – | COc1cc(C(=O)NC[C@](O)(c2cc(C(C)(C)O)c(F)c(-c3ccc(F)cc3)n2)C(F)(F)F)cc2cc(C(F)F)cnc12 | 13200 nM
51.2 mL/min/kg | 7.34 | 8.47 | 20 µL/min/1e6 cells | 4.3 µL/min/1e6 cells | – | – | – | – | – | – | 6% | 77% | COc1cc(C(=O)NC[C@](O)(c2cc3c(c(-c4ccc(F)cc4)n2)OC[C@]3(C)NS(C)(=O)=O)C(F)(F)F)cn2cc(CO)nc12 | > 90900 nM
– | 7.47 | 8.82 | – | – | 5.77 | – | – | – | – | – | – | – | COc1nc2c(OC)cc(C(=O)NC[C@](O)(c3cc(C(C)(C)O)c(F)c(-c4ccc(F)cc4)n3)C(F)(F)F)cc2cc1C | 31000 nM
– | 7.27 | – | – | < 1.9 µL/min/1e6 cells | 5.66 | 8.70 | – | – | – | – | – | – | COc1cc(C(=O)NC[C@](O)(c2cc(C(C)(C)O)c(F)c(-c3ccc(F)cc3)n2)C(F)(F)F)cc2cc(C3CC3)cnc12 | 12900 nM
– | 9.00 | 9.66 | 13 µL/min/1e6 cells | < 1.2 µL/min/1e6 cells | 6.96 | – | – | – | – | – | – | – | COc1cc(C(=O)NC[C@](O)(c2cc(C(C)(C)O)c(F)c(-c3ccc(F)cc3)n2)C(F)(F)F)cc2cc(Cl)nnc12 | 9900 nM
